{"source": "patent US10300061B2", "about": "“Aminothiazole compounds as protein kinase inhibitors” (priority 2017, dated 2019)", "key": {"GIST48": {"tested_on": "GIST48", "test": "GIST48 cell proliferation assay", "format": "cell-based", "details": "Homo sapiens, 120 hours", "procedure": "(§1) GIST882, GIST48 and GIST430 cells were all cultured in incubators maintained at 37° C. and 5% CO2. GIST882 was cultured in RPMI-1640 supplemented with 20% fetal bovine serum (FBS). GIST48 was cultured with F10 supplemented with 20% FBS, 0.5% Mito, serum extender (BD Bioscience, 355006) and 1% pituitary extract bovine (BD Bioscience 354123). GIST430 was cultured in IMDM supplemented with 20% FBS. GIST882, GIST430 and GIST48 cells were provided by Dr. Jonathan A. Fletcher (Harvard Medical School, US).\n(§2) GIST cells (4×10^4) were treated with different dosage of compounds. The treated GIST882 cells were incubated for 144 hours and GIST48 and GIST430 cells were incubated for 120 hours at 37° C. in 5% CO2. Cell proliferation was determined by incubating the cells with […] (Clontech, Calif., US) for 1 hour. The absorbance was measured at 450 nm using SpectraMax M5 microplate reader (Molecular Devices, US)."}, "GIST882": {"tested_on": "GIST882", "test": "GIST882 cell proliferation assay", "format": "cell-based", "details": "Homo sapiens, 144 hours", "procedure": "as §1, §2"}, "GIST-T1": {"tested_on": "GIST-T1", "test": "GIST-T1 MTS assay", "format": "cell-based", "details": "Homo sapiens, GISTT1; gastrointestinal stromal tumor cell line, 72 hours", "procedure": "(§3) A study was carried out as follows to evaluate in vitro anticancer activity of certain compounds prepared according to EXAMPLE 1 using cell lines and MTS cell viability assays (MTS represents 3-(4,5-dimethylthiazol-2-yl)-5-(3-carboxymethoxyphenyl)-2-(4-sulfophenyl)-2H-tetrazolium).\n(§4) Leukemia cell lines MOLM-13, MV4:11, and Kasumin-1 were purchased from American Type Culture Collection (ATCC, Manassas, Va., USA). The human gastrointestinal stromal tumor GIST-T1 cell line was purchased from Cosmo Bio Co., LTD (Tokyo, Japan). All leukemia cell lines were maintained in RPMI 1640 medium supplemented with 10% fetal bovine serum (FBS), 10 U/ml penicillin, and 10 µg/ml streptomycin at 37° C. and 5% CO2. The cell line GIST-T1 was cultured in DMEM medium supplemented with 10% FBS, 0.01% nonessential amino acids, 10 U/ml penicillin, and 10 µg/ml streptomycin.\n(§5) GIST-T1 cells were seeded in 96-well culture plates at a density of 8000 cells/100 μl/well in triplicates and were treated for 72 hours with an indicated concentration of test compound ranging from 1 nM to 10 μM. Colorimetric CellTiter 96® Aqueous One Solution Cell Proliferation assay (MTS assay; Promega, Madison, Wis., USA) was used to determine the cytotoxicity. The optical density at 492 nm was measured using a microplate photometer (Victor2; Perkin-Elmer, Waltham, Mass., USA). IC50 values were determined by MTS assay when cells were treated with test compound for 72 hours and calculated with GraphPad Prism 6. Each experiment was in triplicate."}, "MOLM-13": {"tested_on": "MOLM-13", "test": "MOLM-13 MTS cell viability assay", "format": "cell-based", "details": "Homo sapiens, leukemia cell line, 72 hours", "procedure": "as §3, §4\nas §5, with “Cells” for “GIST-T1 cells”, “1×10^4” for “8000”"}, "GIST430": {"tested_on": "GIST430", "test": "GIST430 cell proliferation assay", "format": "cell-based", "details": "Homo sapiens, 120 hours", "procedure": "as §1, §2"}, "MV4:11": {"tested_on": "MV4:11", "test": "MV4:11 MTS cell viability assay", "format": "cell-based", "details": "Homo sapiens, leukemia cell line, 72 hours", "procedure": "as §3, §4\nas §5, with “Cells” for “GIST-T1 cells”, “1×10^4” for “8000”"}, "Kasumi-1": {"tested_on": "Kasumi-1", "test": "Kasumi-1 MTS cell viability assay", "format": "cell-based", "details": "Homo sapiens, leukemia cell line, 72 hours", "procedure": "as §3, §4\nas §5, with “Cells” for “GIST-T1 cells”, “1×10^4” for “8000”"}, "VEGFR2": {"molecular_target": "T1, VEGFR2 (Homo sapiens, UniProt P35968)", "T1 construct": "The recombinant GST-VEGFR2 (residues V789-V1356) containing kinase domain; GST; made in house; host or cells: Sf9 insect cells", "T1 sequence (P35968 789-1356)": "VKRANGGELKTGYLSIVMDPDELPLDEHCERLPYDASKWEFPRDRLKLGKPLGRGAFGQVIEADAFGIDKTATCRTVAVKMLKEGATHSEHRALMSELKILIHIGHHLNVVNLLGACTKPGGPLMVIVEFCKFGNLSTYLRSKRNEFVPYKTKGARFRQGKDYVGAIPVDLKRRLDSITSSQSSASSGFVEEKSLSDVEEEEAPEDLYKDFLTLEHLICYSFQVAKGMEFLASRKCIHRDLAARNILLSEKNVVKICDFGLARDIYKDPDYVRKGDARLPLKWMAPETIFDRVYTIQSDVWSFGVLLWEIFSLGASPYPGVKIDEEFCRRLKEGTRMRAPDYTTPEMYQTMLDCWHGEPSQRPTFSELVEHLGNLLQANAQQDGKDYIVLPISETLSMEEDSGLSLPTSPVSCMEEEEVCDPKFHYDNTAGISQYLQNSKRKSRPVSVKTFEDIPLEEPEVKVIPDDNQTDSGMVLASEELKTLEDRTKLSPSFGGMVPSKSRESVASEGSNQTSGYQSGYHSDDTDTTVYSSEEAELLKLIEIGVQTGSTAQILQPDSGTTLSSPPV", "test": "VEGFR2 Kinase-Glo kinase assay", "format": "biochemical", "details": "GST-VEGFR2, 1 μM ATP, 30° C. 120 minutes", "procedure": "The recombinant GST-VEGFR2 (residues V789-V1356) containing kinase domain was expressed in Sf9 insect cells. The kinase assay was carried out in 96-well plates with tested compound in a final volume of 50 μl reaction at 30° C. for 120 minutes with following components: 25 mM HEPES pH 7.4, 10 mM MgCl2, 4 mM MnCl2, 0.5 mM Na3VO4, 2 mM DTT, 0.02% Triton X100, 0.01% BSA, 1 μM ATP, 2 μM polyGlu4:Tyr peptide, 50˜100 ng recombinant VEGFR2. Following incubation, 50 μl Kinase-Glo Plus Reagent (Promega, Madison, Wis., USA) was added to each well and the mixture was incubated at 25° C. for 20 min. A 70-μL aliquot of each reaction mixture was transferred to a black microtiter plate and the luminescence was measured on Wallac Vector 1420 multilabel counter (PerkinElmer, Shelton, Conn., USA)."}}, "note": "Counter-ions that a name gives are not always drawn."}
{"smiles": "CCN1CCN(c2cc(Nc3ncc(-c4cccnc4)s3)nc(C)n2)CC1", "note": "[Compound 7, [6-(4-Ethyl-piperazin-1-yl)-2-methyl-pyrimidin-4-yl]-(5-pyridin-3-yl-thiazol-2-yl)-amine hydrochloride salt]", "values": [{"measurement": "GI50", "setting": "GIST48", "value": 820, "unit": "nM"}, {"measurement": "GI50", "setting": "GIST882", "value": 20, "unit": "nM"}, {"measurement": "GI50", "setting": "GIST-T1", "value": 53, "unit": "nM"}, {"measurement": "GI50", "setting": "MOLM-13", "value": 62, "unit": "nM"}, {"measurement": "GI50", "setting": "GIST430", "value": 60, "unit": "nM"}, {"measurement": "GI50", "setting": "MV4:11", "value": 34, "unit": "nM"}, {"measurement": "GI50", "setting": "Kasumi-1", "value": 266, "unit": "nM"}]}
{"smiles": "Cc1nc(Nc2ncc(-c3cccnc3)s2)cc(N2CCC(N(C)C)CC2)n1", "note": "[Compound 10, [6-(4-Dimethylamino-piperidin-1-yl)-2-methyl-pyrimidin-4-yl]-(5-pyridin-3-yl-thiazol-2-yl)-amine hydrochloride salt]", "values": [{"measurement": "IC50", "setting": "VEGFR2", "value": "< 30", "unit": "nM"}]}
{"smiles": "CCN1CCN(c2cc(Nc3ncc(-c4cncnc4)s3)nc(C)n2)CC1", "note": "[Compound 12, [6-(4-Ethyl-piperazin-1-yl)-2-methyl-pyrimidin-4-yl]-(5-pyrimidin-5-yl-thiazol-2-yl)-amine hydrochloride salt]", "values": [{"measurement": "GI50", "setting": "GIST-T1", "value": 119, "unit": "nM"}, {"measurement": "GI50", "setting": "MOLM-13", "value": 211, "unit": "nM"}, {"measurement": "GI50", "setting": "MV4:11", "value": 132, "unit": "nM"}, {"measurement": "GI50", "setting": "Kasumi-1", "value": 349, "unit": "nM"}]}
{"smiles": "CCN1CCN(c2cc(Nc3ncc(-c4ccncc4)s3)nc(C)n2)CC1", "note": "[Compound 1, [6-(4-Ethyl-piperazin-1-yl)-2-methyl-pyrimidin-4-yl]-(5-pyridin-4-yl-thiazol-2-yl)-amine hydrochloride salt]", "values": [{"measurement": "IC50", "setting": "VEGFR2", "value": "< 30", "unit": "nM"}, {"measurement": "GI50", "setting": "GIST48", "value": 19, "unit": "nM"}, {"measurement": "GI50", "setting": "GIST882", "value": 5, "unit": "nM"}, {"measurement": "GI50", "setting": "GIST-T1", "value": 11, "unit": "nM"}, {"measurement": "GI50", "setting": "MOLM-13", "value": 10, "unit": "nM"}, {"measurement": "GI50", "setting": "GIST430", "value": 3.8, "unit": "nM"}, {"measurement": "GI50", "setting": "MV4:11", "value": 13, "unit": "nM"}, {"measurement": "GI50", "setting": "Kasumi-1", "value": 11, "unit": "nM"}]}
{"smiles": "Cc1nc(Nc2ncc(-c3cccnc3)s2)cc(N2CCN(CCO)CC2)n1", "note": "[Compound 9, 2-{4-[2-Methyl-6-(5-pyridin-3-yl-thiazol-2-ylamino)-pyrimidin-4-yl]-piperazin-1-yl}-ethanol hydrochloride salt]", "values": [{"measurement": "IC50", "setting": "VEGFR2", "value": "< 30", "unit": "nM"}]}
